Assay: Phase 1 dose-escalation trial: safety and tolerability (TEAEs, SAEs, DLT, MTD, RP2D)
Procedure: Endpoints included the incidence of DLTs (defined in the ‘Safety' section) in the first 28-day treatment cycle (cycle 1), the frequency and severity of adverse events (AEs) and serious AEs (SAEs) and changes in laboratory values, vital signs, physical examination findings and Eastern Cooperative Oncology Group (ECOG) performance status (PS).
The starting dose was 30 mg, which was determined by review of nonclinical toxicokinetic assessments. A treatment cycle comprised 28 days in the absence of disease progression or unacceptable toxicity. Patients received starting doses ranging from 30 mg once every 24 hours (Q24h) to 480 mg Q24h, and escalation proceeded based on a 3 + 3 design.
The subsequent cohort started at a reduced dosing regimen. Additional dosing schedules were once every 12 hours (Q12h) at 30 and 60 mg and once every 8 hours (Q8h) at 20 and 40 mg.
Toxicities were graded and recorded according to NCI CTCAE version 4.03. Patients were assessed for DLTs during the first 28-day cycle. A DLT was defined as any grade ≥ 3 nonhaematologic toxicity, according to NCI CTCAE version 4.03.

CC(C)NC(=O)[C@H]1CC[C@@H](n2c(NC(=O)c3ccc(F)cc3)nc3ccc(CN4CCC(C(C)(C)O)CC4)cc32)CC1 [TSR-011]
Drug-related TEAE: Abnormal dreams (20 mg Q8h (n = 16)): 1 (6.3) n (%)
Drug-related TEAE: Anaemia (20 mg Q8h (n = 16)): 0 n (%)
Drug-related TEAE: Asthenia (20 mg Q8h (n = 16)): 1 (6.3) n (%)
Drug-related TEAE: Constipation (20 mg Q8h (n = 16)): 2 (12.5) n (%)
Drug-related TEAE: Decreased appetite (20 mg Q8h (n = 16)): 1 (6.3) n (%)
Drug-related TEAE: Diarrhoea (20 mg Q8h (n = 16)): 1 (6.3) n (%)
Drug-related TEAE: Dysaesthesia (20 mg Q8h (n = 16)): 1 (6.3) n (%)
Drug-related TEAE: Dysgeusia (20 mg Q8h (n = 16)): 0 n (%)
Drug-related TEAE: Electrocardiogram QTc prolonged (20 mg Q8h (n = 16)): 1 (6.3) n (%)
Drug-related TEAE: Fatigue (20 mg Q8h (n = 16)): 1 (6.3) n (%)
Drug-related TEAE: Headache (20 mg Q8h (n = 16)): 0 n (%)
Drug-related TEAE: Hot flush (20 mg Q8h (n = 16)): 1 (6.3) n (%)
Drug-related TEAE: Increased transaminases (20 mg Q8h (n = 16)): 0 n (%)
Drug-related TEAE: Insomnia (20 mg Q8h (n = 16)): 0 n (%)
Drug-related TEAE: Myalgia (20 mg Q8h (n = 16)): 0 n (%)
Drug-related TEAE: Nausea (20 mg Q8h (n = 16)): 0 n (%)
Drug-related TEAE: Peripheral oedema (20 mg Q8h (n = 16)): 0 n (%)
Drug-related TEAE: Rash (20 mg Q8h (n = 16)): 0 n (%)
Drug-related TEAE: Vomiting (20 mg Q8h (n = 16)): 2 (12.5) n (%)
Grade 3 TEAE: Anaemia (20 mg Q8h (n = 16)): 2 (12.5) n (%)
Grade 3 TEAE: Ascites (20 mg Q8h (n = 16)): 1 (6.3) n (%)
Grade 3 TEAE: Asthenia (20 mg Q8h (n = 16)): 1 (6.3) n (%)
Grade 3 TEAE: Dyspnoea (20 mg Q8h (n = 16)): 0 n (%)
Grade 3 TEAE: Electrocardiogram QTc prolonged (20 mg Q8h (n = 16)): 0 n (%)
Grade 3 TEAE: Fatigue (20 mg Q8h (n = 16)): 1 (6.3) n (%)
Grade 3 TEAE: Metastases to the central nervous system (20 mg Q8h (n = 16)): 1 (6.3) n (%)
Patients with any TEAE (20 mg Q8h (n = 16)): 16 (100.0) Number (%)
Patients with any TEAE leading to treatment discontinuation (20 mg Q8h (n = 16)): 2 (12.5) Number (%)
Patients with any serious TEAE (20 mg Q8h (n = 16)): 7 (43.8) Number (%)
Patients with any study drug-related TEAE (20 mg Q8h (n = 16)): 9 (56.3) Number (%)
Patients with ≥ 1 treatment-emergent SAE (20 mg Q8h (n = 16)): 7 (43.8) n (%)
SAE class: Blood and lymphatic system disorders (20 mg Q8h (n = 16)): 0 n (%)
SAE class: Cardiac disorders (20 mg Q8h (n = 16)): 0 n (%)
SAE class: Gastrointestinal disorders (20 mg Q8h (n = 16)): 1 (6.3) n (%)
SAE class: General disorders and administration-site conditions (20 mg Q8h (n = 16)): 2 (12.5) n (%)
SAE class: Hepatobiliary disorders (20 mg Q8h (n = 16)): 1 (6.3) n (%)
SAE class: Infections and infestations (20 mg Q8h (n = 16)): 1 (6.3) n (%)
SAE class: Metabolism and nutrition disorders (20 mg Q8h (n = 16)): 1 (6.3) n (%)
SAE class: Musculoskeletal and connective tissue disorders (20 mg Q8h (n = 16)): 1 (6.3) n (%)
SAE class: Neoplasms benign, malignant and unspecified (including cysts and polyps) (20 mg Q8h (n = 16)): 2 (12.5) n (%)
SAE class: Nervous system disorders (20 mg Q8h (n = 16)): 1 (6.3) n (%)
SAE class: Respiratory, thoracic and mediastinal disorders (20 mg Q8h (n = 16)): 0 n (%)
SAE class: Vascular disorders (20 mg Q8h (n = 16)): 1 (6.3) n (%)
SAE: Abdominal pain (20 mg Q8h (n = 16)): 0 n (%)
SAE: Anaemia (20 mg Q8h (n = 16)): 0 n (%)
SAE: Asthenia (20 mg Q8h (n = 16)): 1 (6.3) n (%)
SAE: Basal cell carcinoma (20 mg Q8h (n = 16)): 1 (6.3) n (%)
SAE: Bone pain (20 mg Q8h (n = 16)): 1 (6.3) n (%)
SAE: Deep-vein thrombosis (20 mg Q8h (n = 16)): 1 (6.3) n (%)
SAE: Dehydration (20 mg Q8h (n = 16)): 1 (6.3) n (%)
SAE: Disease progression (20 mg Q8h (n = 16)): 2 (12.5) n (%)
SAE: Dyspnoea (20 mg Q8h (n = 16)): 0 n (%)
SAE: Gastric haemorrhage (20 mg Q8h (n = 16)): 1 (6.3) n (%)
SAE: Gastric ulcer helicobacter (20 mg Q8h (n = 16)): 0 n (%)
SAE: Infection (20 mg Q8h (n = 16)): 0 n (%)
SAE: Lower respiratory tract infection (20 mg Q8h (n = 16)): 0 n (%)
SAE: Mastoiditis (20 mg Q8h (n = 16)): 1 (6.3) n (%)
SAE: Mental impairment (20 mg Q8h (n = 16)): 1 (6.3) n (%)
SAE: Metastases to the central nervous system (20 mg Q8h (n = 16)): 1 (6.3) n (%)
SAE: Pericardial effusion (20 mg Q8h (n = 16)): 0 n (%)
SAE: Pleural effusion (20 mg Q8h (n = 16)): 0 n (%)
SAE: Pneumonia (20 mg Q8h (n = 16)): 0 n (%)
SAE: Portal vein thrombosis (20 mg Q8h (n = 16)): 1 (6.3) n (%)
SAE: Seizure (20 mg Q8h (n = 16)): 1 (6.3) n (%)
SAE: Subarachnoid haemorrhage (20 mg Q8h (n = 16)): 0 n (%)
Total number of TEAEs (20 mg Q8h (n = 16)): 159
Total number of treatment-emergent SAEs (20 mg Q8h (n = 16)): 14
Patients with any AE leading to death (20 mg Q8h (n = 16), none deemed related to treatment): 2 (12.5) Number (%)
Drug-related TEAE: Abnormal dreams (40 mg Q8h (n = 31)): 0 n (%)
Drug-related TEAE: Anaemia (40 mg Q8h (n = 31)): 1 (3.2) n (%)
Drug-related TEAE: Asthenia (40 mg Q8h (n = 31)): 0 n (%)
Drug-related TEAE: Constipation (40 mg Q8h (n = 31)): 2 (6.5) n (%)
Drug-related TEAE: Decreased appetite (40 mg Q8h (n = 31)): 0 n (%)
Drug-related TEAE: Diarrhoea (40 mg Q8h (n = 31)): 0 n (%)
Drug-related TEAE: Dysaesthesia (40 mg Q8h (n = 31)): 0 n (%)
Drug-related TEAE: Dysgeusia (40 mg Q8h (n = 31)): 0 n (%)
Drug-related TEAE: Electrocardiogram QTc prolonged (40 mg Q8h (n = 31)): 3 (9.7) n (%)
Drug-related TEAE: Fatigue (40 mg Q8h (n = 31)): 0 n (%)
Drug-related TEAE: Headache (40 mg Q8h (n = 31)): 0 n (%)
Drug-related TEAE: Hot flush (40 mg Q8h (n = 31)): 0 n (%)
Drug-related TEAE: Increased transaminases (40 mg Q8h (n = 31)): 0 n (%)
Drug-related TEAE: Insomnia (40 mg Q8h (n = 31)): 2 (6.5) n (%)
Drug-related TEAE: Myalgia (40 mg Q8h (n = 31)): 0 n (%)
Drug-related TEAE: Nausea (40 mg Q8h (n = 31)): 1 (3.2) n (%)
Drug-related TEAE: Peripheral oedema (40 mg Q8h (n = 31)): 1 (3.2) n (%)
Drug-related TEAE: Rash (40 mg Q8h (n = 31)): 1 (3.2) n (%)
Drug-related TEAE: Vomiting (40 mg Q8h (n = 31)): 1 (3.2) n (%)
Grade 3 TEAE: Anaemia (40 mg Q8h (n = 31)): 2 (6.5) n (%)
Grade 3 TEAE: Ascites (40 mg Q8h (n = 31)): 0 n (%)
Grade 3 TEAE: Asthenia (40 mg Q8h (n = 31)): 1 (3.2) n (%)
Grade 3 TEAE: Dyspnoea (40 mg Q8h (n = 31)): 0 n (%)
Grade 3 TEAE: Electrocardiogram QTc prolonged (40 mg Q8h (n = 31)): 1 (3.2) n (%)
Grade 3 TEAE: Fatigue (40 mg Q8h (n = 31)): 0 n (%)
Grade 3 TEAE: Metastases to the central nervous system (40 mg Q8h (n = 31)): 1 (3.2) n (%)
Patients with any TEAE (40 mg Q8h (n = 31)): 29 (93.5) Number (%)
Patients with any TEAE leading to treatment discontinuation (40 mg Q8h (n = 31)): 5 (16.1) Number (%)
Patients with any serious TEAE (40 mg Q8h (n = 31)): 12 (38.7) Number (%)
Patients with any study drug-related TEAE (40 mg Q8h (n = 31)): 13 (41.9) Number (%)
Patients with ≥ 1 treatment-emergent SAE (40 mg Q8h (n = 31)): 12 (38.7) n (%)
SAE class: Blood and lymphatic system disorders (40 mg Q8h (n = 31)): 2 (6.5) n (%)
SAE class: Cardiac disorders (40 mg Q8h (n = 31)): 1 (3.2) n (%)
SAE class: Gastrointestinal disorders (40 mg Q8h (n = 31)): 1 (3.2) n (%)
SAE class: General disorders and administration-site conditions (40 mg Q8h (n = 31)): 2 (6.5) n (%)
SAE class: Hepatobiliary disorders (40 mg Q8h (n = 31)): 0 n (%)
SAE class: Infections and infestations (40 mg Q8h (n = 31)): 4 (12.9) n (%)
SAE class: Metabolism and nutrition disorders (40 mg Q8h (n = 31)): 0 n (%)
SAE class: Musculoskeletal and connective tissue disorders (40 mg Q8h (n = 31)): 0 n (%)
SAE class: Neoplasms benign, malignant and unspecified (including cysts and polyps) (40 mg Q8h (n = 31)): 1 (3.2) n (%)
SAE class: Nervous system disorders (40 mg Q8h (n = 31)): 2 (6.5) n (%)
SAE class: Respiratory, thoracic and mediastinal disorders (40 mg Q8h (n = 31)): 1 (3.2) n (%)
SAE class: Vascular disorders (40 mg Q8h (n = 31)): 0 n (%)
SAE: Abdominal pain (40 mg Q8h (n = 31)): 1 (3.2) n (%)
SAE: Anaemia (40 mg Q8h (n = 31)): 2 (6.5) n (%)
SAE: Asthenia (40 mg Q8h (n = 31)): 0 n (%)
SAE: Basal cell carcinoma (40 mg Q8h (n = 31)): 0 n (%)

Source: article PMC6738096 (British Journal of Cancer, 2019)
